From patent US8629157B2, “Pyrrolidine compounds which modulate the CB2 receptor” (Boehringer Ingelheim International GmbH, priority 2009, dated 2014)

Molecular target: human CB2R (Homo sapiens, UniProt P34972)
Assay: CB2R mediated modulation of cAMP synthesis
Format: cell-based
Conditions: not given
Experimental: B. CB2R Mediated Modulation of cAMP Synthesis:
Compounds of the invention were evaluated for their CB2 agonist or inverse agonistic activity in accordance with the following experimental method.
CHO cells expressing human CB2R (Euroscreen) were plated at a density of 5000 cells per well in 384 well plates and incubated overnight at 37° C. After removing the media, the cells were treated with test compounds diluted in stimulation buffer containing 1 mM IBMX, 0.25% BSA and 10 uM Forskolin. The assay was incubated for 30 minutes at 37° C. Cells were lysed and the cAMP concentration was measured using DiscoverX-XS cAMP kit, following the manufacturer's protocol. In this setting, agonists will decrease forskolin induced production of cAMP while inverse agonists will further increase forskolin induced production of cAMP. EC50 of agonists were calculated as follows. The maximal amount of cAMP produced by forskolin compared to the level of cAMP inhibited by 1 uM CP55940 is defined as 100%. […] Data was analyzed using a four-parameter logistic model. (Model 205 of XLfit 4.0).

Sequence of human CB2R (P34972 whole entry): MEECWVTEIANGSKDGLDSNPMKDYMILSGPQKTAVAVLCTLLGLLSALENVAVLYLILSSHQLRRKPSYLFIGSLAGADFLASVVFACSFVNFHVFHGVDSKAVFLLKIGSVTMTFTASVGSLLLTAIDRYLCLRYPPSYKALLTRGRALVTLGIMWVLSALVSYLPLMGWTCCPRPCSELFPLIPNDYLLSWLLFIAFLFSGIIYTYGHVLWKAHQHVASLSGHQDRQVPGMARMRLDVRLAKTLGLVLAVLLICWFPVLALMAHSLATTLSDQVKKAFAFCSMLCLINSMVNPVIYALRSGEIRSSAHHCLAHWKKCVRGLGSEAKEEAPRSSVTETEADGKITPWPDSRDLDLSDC

Compound | EC50
CC(C)(C)c1csc(NC(=O)[C@@H]2CCCN2c2ccc(C(F)(F)F)cn2)n1 [(S)-1-(5-Trifluoromethyl-pyridin-2-yl)-pyrrolidine-2-carboxylic acid (4-tert-butyl-thiazol-2-yl)-amide] | 8.56 nM
CC(C)(C)c1cc(NC(=O)[C@@H]2CCC(=O)N2c2ccccn2)on1 [(S)-5-Oxo-1-pyridin-2-yl-pyrrolidine-2-carboxylic acid (3-tert-butyl-isoxazol-5-yl)-amide] | 136 nM
Cc1nc(N2C(=O)CC[C@H]2C(=O)Nc2cc(C(C)(C)C)no2)ccc1F [(S)-1-(5-Fluoro-6-methyl-pyridin-2-yl)-5-oxo-pyrrolidine-2-carboxylic acid (3-tert-butyl-isoxazol-5-yl)-amide] | 74.4 nM
CC(C)(C)c1cccc(NC(=O)[C@@H]2CCC(=O)N2c2ccc(Cl)cc2)c1 [(S)-1-(4-Chloro-phenyl)-5-oxo-pyrrolidine-2-carboxylic acid (3-tert-butyl-phenyl)-amide] | 58.7 nM
CC(C)(C)c1cc(NC(=O)[C@@H]2C[C@@H](O)CN2C2CCCC2)on1 [(2S,4R)-1-Cyclopentyl-4-hydroxy-pyrrolidine-2-carboxylic acid (3-tert-butyl-isoxazol-5-yl)-amide] | 61.9 nM
O=C(Nc1nc2cc(Cl)c(Cl)cc2[nH]1)[C@@H]1CCCN1CC1CCOCC1 [(S)-1-(Tetrahydro-pyran-4-ylmethyl)-pyrrolidine-2-carboxylic acid (5,6-dichloro-1H-benzimidazol-2-yl)-amide] | 56.2 nM
CC(C)(C)c1cc(NC(=O)[C@@H]2CCCN2c2ncc(Cl)cc2F)on1 [(S)-1-(5-Chloro-3-fluoro-pyridin-2-yl)-pyrrolidine-2-carboxylic acid (3-tert-butyl-isoxazol-5-yl)-amide] | 0.02 nM
CC(C)(C)c1cc(NC(=O)[C@@H]2CCC(=O)N2c2ccc(Cl)c(Cl)c2)no1 [(S)-1-(3,4-Dichloro-phenyl)-5-oxo-pyrrolidine-2-carboxylic acid (5-tert-butyl-isoxazol-3-yl)-amide] | 49.7 nM
C[C@@]1(C(=O)Nc2nc(-c3ccccc3)ns2)CCCN1c1ccc(C(F)(F)F)cn1 [(S)-2-Methyl-1-(5-trifluoromethyl-pyridin-2-yl)-pyrrolidine-2-carboxylic acid (3-phenyl-1,2,4-thiadiazol-5-yl)-amide] | 0.136 nM
CC(C)(C)c1cc(NC(=O)C2CCCN2c2ccc(Cl)cn2)no1 (centres unmarked) [1-(5-Chloro-pyridin-2-yl)-pyrrolidine-2-carboxylic acid (5-tert-butyl-isoxazol-3-yl)-amide] | 0.364 nM
CC(C)(C)c1cc(NC(=O)[C@@H]2CCCN2C2CCCCC2)on1 [(S)-1-Cyclohexyl-pyrrolidine-2-carboxylic acid (3-tert-butyl-isoxazol-5-yl)-amide] | 0.173 nM
CCC(C)N1CCC[C@H]1C(=O)Nc1nnc(C(C)(C)C)s1 (some centres unmarked) [1-sec-Butyl-pyrrolidine-2-carboxylic acid (5-tert-butyl-1,3,4-thiadiazol-2-yl)-amide] | 390 nM
CC(C)(C)Cc1cc(NC(=O)[C@@H]2CCCN2CC2CC2)on1 [(S)-1-Cyclopropylmethyl-pyrrolidine-2-carboxylic acid [3-(2,2-dimethyl-propyl)-isoxazol-5-yl]-amide] | 22.3 nM
CC(C)(C)c1cc(NC(=O)[C@@H]2C[C@@H](O)CN2c2ncc(C(F)(F)F)cc2Cl)no1 [(2S,4R)-1-(3-Chloro-5-trifluoromethyl-pyridin-2-yl)-4-hydroxy-pyrrolidine-2-carboxylic acid (5-tert-butyl-isoxazol-3-yl)-amide] | 5.04 nM
CCC(C)CN1CCC[C@H]1C(=O)Nc1cc(C(C)(C)C)no1 (stereo partly drawn) [(S)-1-(2-Methyl-butyl)-pyrrolidine-2-carboxylic acid (3-tert-butyl-isoxazol-5-yl)-amide] | 0.116 nM
CC(C)(CO)c1cc(NC(=O)[C@@H]2C[C@@H](O)CN2c2ccc(Cl)cc2)on1 [(2S,4R)-1-(4-Chloro-phenyl)-4-hydroxy-pyrrolidine-2-carboxylic acid [3-(2-hydroxy-1,1-dimethyl-ethyl)-isoxazol-5-yl]-amide] | 196 nM
CC(C)(C)c1cc(NC(=O)[C@@H]2CCC(=O)N2c2ccc(Cl)cc2)sn1 [(S)-1-(4-Chloro-phenyl)-5-oxo-pyrrolidine-2-carboxylic acid (3-tert-butyl-isothiazol-5-yl)-amide] | 135 nM
CC1(C)CC(CN2CCCC2C(=O)Nc2cc(C(C)(C)C)no2)CCO1 (centres unmarked) [1-(2,2-Dimethyl-tetrahydro-pyran-4-ylmethyl)-pyrrolidine-2-carboxylic acid (3-tert-butyl-isoxazol-5-yl)-amide] | 7.1 nM
CC(C)(C)Cc1cc(NC(=O)[C@@H]2CCCN2CC2CCOCC2)on1 [(S)-1-(Tetrahydro-pyran-4-ylmethyl)-pyrrolidine-2-carboxylic acid [3-(2,2-dimethyl-propyl)-isoxazol-5-yl]-amide] | 3.46 nM
CC(C)(C)c1cc(NC(=O)[C@@H]2CCC(=O)N2c2ccc(Cl)c(F)c2)on1 [(S)-1-(4-Chloro-3-fluoro-phenyl)-5-oxo-pyrrolidine-2-carboxylic acid (3-tert-butyl-isoxazol-5-yl)-amide] | 14.2 nM
CCc1sc(NC(=O)[C@@H]2C[C@@H](O)CN2C2CCOCC2)nc1-c1ccccc1 [(2S,4R)-4-Hydroxy-1-(tetrahydro-pyran-4-yl)-pyrrolidine-2-carboxylic acid (5-ethyl-4-phenyl-thiazol-2-yl)-amide] | 58.7 nM
CC(C)(C)c1cc(NC(=O)[C@@H]2CCC(=O)N2c2ccc(F)c(Cl)c2)no1 [(S)-1-(3-Chloro-4-fluoro-phenyl)-5-oxo-pyrrolidine-2-carboxylic acid (5-tert-butyl-isoxazol-3-yl)-amide] | 59.3 nM
CC(C)(C)c1cc(NC(=O)[C@@H]2CCC(=O)N2c2ccc(Cl)c(F)c2)no1 [(S)-1-(4-Chloro-3-fluoro-phenyl)-5-oxo-pyrrolidine-2-carboxylic acid (5-tert-butyl-isoxazol-3-yl)-amide] | 12.7 nM
O=C(NCCC1CCOCC1)[C@@H]1CCCN1c1ccc(Cl)cc1 [(S)-1-(4-Chloro-phenyl)-pyrrolidine-2-carboxylic acid [2-(tetrahydro-pyran-4-yl)-ethyl]-amide] | 105 nM
O=C(Nc1nc(-c2ccccc2)ns1)[C@@H]1CCCN1CC1CCOCC1 [(S)-1-(Tetrahydro-pyran-4-ylmethyl)-pyrrolidine-2-carboxylic acid (3-phenyl-1,2,4-thiadiazol-5-yl)-amide] | 40 nM
CC(C)(CO)c1cc(NC(=O)[C@@H]2CCCN2C2CCOCC2)on1 [(S)-1-(tetrahydro-pyran-4-yl)-pyrrolidine-2-carboxylic acid [3-(2-hydroxy-1,1-dimethyl-ethyl)-isoxazol-5-yl]-amide] | 50 nM
CC(C)(C)c1cc(NC(=O)[C@@H]2CCC(=O)N2c2ccc(C#N)c(F)c2)no1 [(S)-1-(4-Cyano-3-fluoro-phenyl)-5-oxo-pyrrolidine-2-carboxylic acid (5-tert-butyl-isoxazol-3-yl)-amide] | 78.5 nM
CCCc1cc(NC(=O)[C@@H]2CCCN2c2ccc(Cl)cc2)on1 [(S)-1-(4-Chloro-phenyl)-pyrrolidine-2-carboxylic acid (3-propyl-isoxazol-5-yl)-amide] | 2.41 nM

Same assay, conditions: CHO cells expressing human CB2R; inhibition of forskolin-stimulated cAMP synthesis; mean; read-out: CB2 CAMP @ EC50 nM (mean)

EC50 | Compound
0.549 nM | O=C(Nc1nc(-c2ccccc2)ns1)[C@@H]1CCC(=O)N1c1ncc(C(F)(F)F)cc1Cl [(S)-1-(3-chloro-5-trifluoromethyl-pyridin-2-yl)-5-oxo-pyrrolidine-2-carboxylic acid (3-phenyl-1,2,4-thiadiazol-5-yl)-amide]
